In ChEMBL document CHEMBL4706757, “Novel Substituted Pyridazines as Splicing Modulators for Modulating Splicing of mRNA and Uses Thereof for Treating Diseases” (ACS Med Chem Lett, 2021):

How the values were obtained:
Format in all cases: cell-based
[1] = Modulation of HTT mRNA exon 49b splicing in human GM04724 cells incubated for 24 hrs by TaqMan qPCR analysis; conditions: GM04724, 24 h
[2] = Modulation of HTT mRNA exon 49-50 splicing in human GM04724 cells incubated for 24 hrs by TaqMan qPCR analysis; conditions: GM04724, 24 h
[3] = Modulation of HTT mRNA splicing in human GM04724 cells assessed as mHTT protein level incubated for 48 hrs by 2B7-MW1 assay; conditions: GM04724, 48 h

Measured: EC50

C[C@@]12CCC[C@@](C)(N1)[C@H](F)[C@H](Oc1ccc(-c3ccc(-c4cn[nH]c4)cc3O)nn1)C2
≤ 0.01 nM: all assays above

Cn1cc(-c2cc(O)c(-c3ccc(O[C@@H]4C[C@@H]5CCC[C@@H](N5)[C@@H]4F)nn3)cc2F)cn1
≤ 0.01 nM: all assays above

Oc1cc(-c2cn[nH]c2)c(F)cc1-c1ccc(O[C@@H]2C[C@@H]3CCC[C@@H](N3)[C@@H]2F)nn1
≤ 0.01 nM: all assays above

Oc1cc(-c2cn[nH]c2)c(F)cc1-c1ccc(O[C@H]2C[C@H]3CCC[C@H](N3)[C@H]2F)nn1
≤ 0.01 nM: all assays above

Oc1cc(-c2cn[nH]c2)ccc1-c1ccc(O[C@H]2C[C@H]3CCC[C@H](N3)[C@H]2F)nn1
≤ 0.01 nM: all assays above

Oc1cc(-c2cn[nH]c2)ccc1-c1ccc(O[C@@H]2C[C@@H]3CCC[C@@H](N3)[C@@H]2F)nn1
≤ 0.01 nM: all assays above

C[C@]12CCC[C@](C)(N1)[C@@H](F)[C@@H](Oc1ccc(-c3ccc(-c4cn[nH]c4)cc3O)nn1)C2
≤ 0.01 nM: all assays above

Cn1cc(-c2cc(O)c(-c3ccc(O[C@H]4C[C@H]5CCC[C@H](N5)[C@H]4F)nn3)cc2F)cn1
≤ 0.01 nM: all assays above
